In patent US8563601B2, “Method of managing broncho-constrictive condition” (Indus Biotech Private Limited, priority 2010, dated 2013):

What was measured:
[1] = test system: ovalbumin-induced broncho-constriction in sensitized guinea pigs; test: In-vivo pulmonary antigen-induced sensitization study (intratracheal pressure); set-up: species or system Male Duncan Hartley derived guinea pigs; settings: about 30 mg/kg
Protocol: Prophylactic activity of instant composition against antigen-induced broncho-constriction is tested in sensitized guinea pigs. […] One hour after pretreatment, the guinea pigs are sensitized with intraperitoneal injection of ovalbumin (0.5 μg). A cocktail of Indomethacin (about 10 mg/kg), Mepyramine (about 2 mg/kg) and Propanolol (about 100 mg/kg) is injected about 10 mins before sensitization in order to block other mediators of broncho-blockade. Sensitized animals are anesthetized and artificially ventilated.

[2] = Heart rate and blood pressure in the pulmonary antigen-induced sensitization study; assay type: in vivo, Male Duncan Hartley derived guinea pigs; settings: guinea pigs
Protocol: Prophylactic activity of instant composition against antigen-induced broncho-constriction is tested in sensitized guinea pigs. Male Duncan Hartley derived guinea pigs (400±50 g) are pretreated with instant composition at dose of about 100 mg/kg of body weight of the subject, administered orally. One hour after pretreatment, the guinea pigs are sensitized with intraperitoneal injection of ovalbumin (0.5 μg). A cocktail of Indomethacin (about 10 mg/kg), Mepyramine (about 2 mg/kg) and Propanolol (about 100 mg/kg) is injected about 10 mins before sensitization in order to block other mediators of broncho-blockade. Sensitized animals are anesthetized and artificially ventilated. […]

In the case of `O=C1CCN(c2ccccc2)N1` [Phenidone], the “ΔITP Before Ovalbumin” value ([1]; n = 5) was 0 cm H2O, the “ΔITP After Ovalbumin” value ([1]; n = 5, vehicle control 29.3 ± 2.2) was 2.3 ± 0.3 cm H2O and the “effect on blood pressure” value ([2]; 5 minutes after administration) was “reduced blood pressure”. For the same molecule, the “Blood Pressure” value ([2]; measured 5 mins after administration, n = 5, vehicle control 49.4 ± 4.0) was 34.4 ± 1.9 mm Hg and the “Heart Rate” value ([2]; measured 5 mins after administration, n = 5, vehicle control 171.2 ± 3.4) was 162.4 ± 4.7 beats/minute.
